# System: reconstituted tissue membrane (fibroblast non-muscle myosin / actin cytoskeleton)
# Assay: Tissue indentation method in 96-well plate: peak force of reconstituted tissue membrane
# Assay type: cell-based
# Protocol: A triangular frame made of stainless steel wire 1 mm in diameter was employed as a scaffold on which the reconstituted tissue formed. The wells are slightly tapered toward the bottom and the frame is securely positioned 1 mm above the bottom of the well (FIG. 11a). The non-polymerized solution of collagen containing cells and appropriate cell culture media as described above was poured into the wells filling the wells to a level 3 mm above the bottom (FIG. 11b). The 96-well plate was incubated at 37° C. with 5% CO2. During the incubation, cells compressed collagen matrices by squeezing liquid out from the porous collagen matrix. Without the wire frame, the reconstituted tissue contracted into a small sphere floating in the tissue culture medium. It was discovered that by utilizing different shapes of wire frames the collagen matrix was compressed into shapes corresponding to shapes of the frames. Other wire frame shapes, such as one shown in FIG. 11b, produced tissue strips with different widths. A porous support material such as a Velcro fastener was not required to facilitate tissue adhesion even to the non-porous stainless steel surfaces of a wire. The collagen was compressed to a greater extent at the outer portion of the membrane or strip. Therefore, this outer portion of the membrane can withstand stress produced by the cells and prevented it from ripping the membrane off the wire frame.
# To assess the response of the tissue model samples to test agents, the resistance of the tissue samples to stretch is measured by a probe coupled to a force transducer. The stiffness of the tissue is related to the force required to move the probe by a specified amount once the probe contacts the tissue. […]
# The stage is raised until the probe tip touches the membrane or strip of reconstituted tissue. Contact of the tip with the sample is detected by a sudden increase in the force registered by the isometric force transducer. […] During this trajectory the tip comes in contact with the tissue specimen and stretches it as the force is continually recorded by a data recorder. […]
structure (smiles),measurement,setting,value
"C=C1[C@@H](C)[C@H]2[C@H](Cc3ccccc3)NC(=O)[C@]23[C@H](OC(C)=O)/C=C/[C@@](C)(O)C(=O)[C@@H](C)C/C=C/[C@H]3[C@@H]1O [CD, cytochalasin D]",decrease of peak force from its initial level,"40 nM CD, nearly 15 min after addition, after 20% FBS",about 40%
same,peak force,"2 μM CD, 20 min after addition",further reduction
same,reduction of the height of the force peaks,"96-well plate, after 10% FBS",60%
